Data on 109 molecules can be found in a melting point compilation (Tetko et al.).

The melting point is the temperature of the solid-liquid transition. The molecule `O=c1c2ccccc2oc2ncccc12` showed a melting point of 180 to 182 °C. As for `CNC(=O)c1cc([N+](=O)[O-])cc([N+](=O)[O-])c1`, the figure is 148 to 149 °C; as for `N#Cc1cc(I)c(O)c(I)c1`, 212 °C. The figure for `Cc1cc(C)c2c(c1C)C(=O)C2` is 73 °C. In turn, `CC(C)N(C(=O)CCl)c1ccccc1` gave a melting point of 77 °C. In the case of `Cc1nc(-c2ccc(C(F)(F)F)cc2)sc1C=O`, the melting point lay within 131 to 133 °C.

`O=Cc1c(F)c(F)c(F)c(F)c1F` registered a melting point of 25.5 °C. The figure for `FC(F)(F)c1nnc(S)n1/N=C/c1ccc2c(c1)OCO2` is 221 °C; for `Nc1nnc(-c2ccccc2)c(Nc2ccc(Cl)cc2Cl)n1` it is 222 to 223 °C; for `CCC1(OC(C)=O)CCC2(C)C(CCC3C4CCC(=O)C4(C)CCC32)C1` (centres undefined) it is 150 to 152 °C.

`CCCCCCCCOc1ccc(C(=O)OC)cc1` returned a melting point of 35 °C. The figure for `CC1(C)C=[N+]([O-])C(C)(C)C1` is 53 to 59 °C; for `N#CC1=C(C#N)C(=O)C(NCc2ccccc2)=C(Cl)C1=O` it is 232 to 234 °C.

With `O=S1(=O)OC(c2ccc(O)c(Cl)c2)(c2ccc(O)c(Cl)c2)c2ccccc21`, the melting point stood at 261 °C. Molecule `C=Cc1ccc(C(=O)OC)cc1` gave a melting point of 36 °C. Molecule `Clc1cccc2cc3ccccc3cc12` gave a melting point of 83.5 °C.

Consider `O=S(=O)(Oc1ccc(Cl)cc1Cl)c1ccccc1`, for which the melting point is 45.5 °C. As for `COc1cc(OC)nc(NC(=O)NS(=O)(=O)Nc2ccccc2C(=O)C2CC2)n1`, the figure is 162 °C; as for `N#Cc1ccccc1COc1ccccc1`, 62 to 64 °C; as for `Cc1cc(C)n2nc(N)c(/N=N/c3cccnc3)c2n1`, 245 °C.

Regarding `CCOC(=O)c1cn2ccsc2n1`, the melting point was 87 to 91 °C. Molecule `CCN(CC)c1ccc(C=NN(c2ccccc2)c2ccccc2)cc1` gave a melting point of 92 to 95 °C. The molecule `O=CCc1ccccc1` had a melting point of 33.5 °C.

In turn, `CCCCCCCCCCCC(CCCCCCCC)c1ccccc1` (centres undefined) showed a melting point of 17.9 °C. For the molecule `O=C(CBr)c1ccccc1[N+](=O)[O-]`, the melting point came out at 55 °C. Take `Cn1c(=O)c(C2=NNC(=O)C2=Cc2c(O)ccc3ccccc23)c(O)c2ccccc21`: the melting point was determined as 285 °C. `NCCc1ccc(-c2ccccc2)cc1`: the melting point lay within 53 to 55 °C. On to `CC(=O)n1c2ccccc2c2cc3ccccc3nc21`, for which the melting point stood at 187 °C.

`COc1cc2c(cc1C)C(=O)C2`: the melting point was found to be 88 °C. As for `CC1=CC=CC2(C)Cc3ccccc3C(=O)N12` (centres undefined), the figure is 177 °C. In the case of `CCCCCC#CCC(=O)O`, the melting point worked out at 17 °C. `CC12CCC(=O)CC1CCC13OC14CCC(=O)C4(C)CCC23` (centres undefined) came in with a melting point of 171 to 173 °C. Molecule `Cc1ccc(-c2cnco2)cc1` displayed a melting point of 78 °C. With `NC(=S)Nc1cccnc1`, the melting point was 159 to 160 °C. Consider `CC(=O)O[Si](OC(C)=O)(OC(C)(C)C)OC(C)(C)C`, for which the melting point was -4 °C. In turn, `COC(=O)c1sc2ccccc2c1N` yielded a melting point of 107 to 108 °C.

Regarding `Nc1nsc2ccc([N+](=O)[O-])cc12`, the melting point stood at 200 °C.

In turn, `COc1ncccc1N` came in with a melting point of 67 to 68 °C. As to `COP(=O)(OC)c1ccccc1P(=O)(OC)OC`, the melting point amounted to 81 °C.

On to `CCOC(=O)C(=NOC(C)(C)C(=O)OC(C)(C)C)c1csc(N)n1`, for which the melting point is 168 to 174 °C. For the molecule `CCOC(=O)c1c[nH]c2c(OC(F)(F)F)cccc2c1=O`, the melting point lay in the range of 235 to 240 °C. Turning to `Cc1ccc2cc(N)ccc2n1`, the melting point turned out to be 190 °C. For the molecule `CCOc1ccc([N+](=O)[O-])cc1N`, the melting point was 96.5 °C. In turn, `COc1ccc(C=CC(=O)c2ccc(F)cc2)cc1OC` yielded a melting point of 88 to 93 °C. As for `C=Cc1c(C)cc(C)cc1C`, the melting point was -37 °C.

Regarding `COc1cc(C(=O)c2ccc(-c3ccccc3)cc2)c([N+](=O)[O-])cc1OC`, the melting point lay in the range of 144 to 145 °C.

Molecule `O=C(O)c1ccc(=O)[nH]c1` returned a melting point of 314 to 316 °C. In turn, `O=C1NN(c2ccccc2)C(=O)C1=C1SC=C(c2ccccc2)S1` had a melting point of 288 to 290 °C. In turn, `CSc1ccc(N)cc1C(F)(F)F` yielded a melting point of 57 °C.

Take `CCOC(=O)c1c(C)oc2c(F)c(F)c(F)c(F)c12`: the melting point amounted to 70 °C.

In turn, `CCC(=O)Nc1nc(C)c(Cl)s1` returned a melting point of 159 °C.

Molecule `Cc1ccc(Oc2ccc(Br)cc2)nn1` returned a melting point of 120 °C.

On to `O=C(O)c1ccc2c(c1)CCCN2`, for which the melting point fell in the range of 168 to 170 °C.

With `CC#CC(C)CC` (centres undefined), the melting point is -108 °C.

For `Oc1cc(C(F)(F)F)nc2cc(Cl)cc(Cl)c12`, the melting point came to 230 °C. `CCOc1cc2c(cc1OCC)C(CC#N)NCC2` (centres undefined): the melting point lay in the range of 99 to 102 °C. As for `O=C(C(Br)Br)C(Br)(Br)Br`, the figure is 79.5 °C; as for `COc1cc(/C=C/C(=O)CC(=O)/C=C/c2ccc(O)c(OC)c2)ccc1O`, 183 °C; as for `C#CCCCCN1C(=O)c2ccccc2C1=O`, 70 °C. Regarding `CC(C)C(C)C=CC(C)C1CCC2C3=CC=C4CC(O)CCC4(C)C3=CCC21C` (centres undefined), the melting point was 146 °C. As for `CCCCCCCCCCCCC#CC#CCO`, the melting point lay in the range of 57 to 59 °C. Molecule `CCC(C)(C)C(=O)O` displayed a melting point of -14 °C. The figure for `CCOC(=O)CN1CCN(C(=O)C=Cc2cc(OC)c(OC)c(OC)c2)CC1` is 96 °C; for `Cn1c(=O)c(C2=Nc3ccccc3SC(c3cccs3)C2)c(O)c2ccccc21` (centres undefined) it is 224 °C; for `N[C@@H](CCC(=O)N[C@@H](CCC(=O)O)C(=O)O)C(=O)O` it is 179 to 182 °C. `CCCCCCCCCCOc1ccc(C(C)=O)cc1OCCCCCCCCCC` yielded a melting point of 61 to 65 °C.

The molecule `CCCCOCCOCCO` displayed a melting point of -68 °C. For `CCCCOC(=O)CC(O)(CC(=O)OCCCC)C(=O)OCCCC`, the melting point was -20 °C. Molecule `Cn1c(SCC(=O)O)nnc1-c1ccc2ncccc2c1` registered a melting point of 238 to 239 °C. As for `CCCCCCCCCCCCCC=CC(O)C(CO)NC(=O)CCCCCCCCCCCCCCC` (centres undefined), the figure is 94 to 95 °C; as for `Cc1ccc(S(=O)(=O)Cl)cc1[N+](=O)[O-]`, 38 to 40 °C. For the molecule `CCCCCCCCCCCCCCCCCCCCC1CCCCC1`, the melting point was 48.5 °C. Molecule `Cc1c(C=O)cnn1-c1ccc(F)cc1` registered a melting point of 113 to 115 °C. As to `C#CC1(O)CC[C@@]2(C)C(CC[C@@H]3[C@@H]2CC[C@@]2(C)[C@H]3CC[C@]2(O)C#C)C1` (some centres undefined), the melting point amounted to 147 °C. `[O-][P+](c1ccccc1)(c1ccccc1)C1C2=C(CCCC2)OC2=C1CCCC2` showed a melting point of 157 °C. Consider `O=C(O)C=CC(=O)Nc1cccc(C(F)(F)F)c1`, for which the melting point fell in the range of 161 to 164 °C. The molecule `O=C1NC(=O)C(=NO)C(=O)N1` displayed a melting point of 236 to 242 °C. In turn, `COc1cc(C)nc(N)n1` returned a melting point of 161 °C.

For `CC(=O)c1ccc(NC(N)=S)cc1`, the melting point is 215 °C. As for `CC12C=CC(=O)C=C1C(F)CC1C2C(O)CC2(C)C1CCC2(O)C(=O)CO` (centres undefined), the figure is 210 °C. `Cc1cncc(C(=O)O)c1` registered a melting point of 212 °C. In turn, `COc1cc2c(cc1OC)C(c1ccccc1[N+](=O)[O-])N(C(C)=O)CC2` (centres undefined) came in with a melting point of 132 to 134 °C. In turn, `Oc1ccccc1[C@H]1C[C@H](c2ccccc2)Sc2ccccc2N1` had a melting point of 89.8 °C. As to `O=C(O)c1cc(O)cc(C(=O)O)c1`, the melting point amounted to 293 °C. Take `CCCC(C)C(=O)Nc1ccc(C)c(Cl)c1` (centres undefined): the melting point stood at 85.5 °C.

For `NC(=S)NN=C1C2CCCC1C1(O)CCCCC1C2` (centres undefined), the melting point worked out at 184 °C. `Cc1ccc(C(=O)c2noc(-c3ccc([N+](=O)[O-])cc3)c2S(=O)(=O)c2ccccc2)cc1`: the melting point stood at 170 °C.

In the case of `CCc1c(C)nc(NC(=O)NS(=O)(=O)c2cccs2)nc1O`, the melting point lay within 179 to 180 °C. `Cn1c(C(=O)O)cc2sccc21` registered a melting point of 154 to 156 °C. In turn, `COc1ccc(C=CC(=O)c2cccc(C(=O)C=Cc3ccc(OC)c(O)c3)c2)cc1O` returned a melting point of over 200 °C. On to `NCP(=O)(O)O`, for which the melting point is 300 °C. Turning to `CN1C(=C(O)Nc2ccccn2)C(=O)c2sccc2S1(=O)=O`, the melting point was determined as 211 °C. With `CC(C)(C)C(=O)NNCc1ccccc1`, the melting point came to 68.5 °C. The molecule `O=CN(C=O)N(C=O)C=O` had a melting point of 180 to 183 °C. For `C=C(C)C(=O)NCO`, the melting point was -37 °C. `COc1cc2c(cc1C)C(C#N)C2` (centres undefined): the melting point was determined as 67 °C. `Cc1ccnc(C#N)c1` yielded a melting point of 87 °C. As for `O=[N+]([O-])c1ccccc1C(Br)C(Br)c1ccccn1` (centres undefined), the melting point was 182 °C. Consider `Ic1cccc2ccccc12`, for which the melting point came out at 4 °C. As for `FC(F)(F)c1ccc(-c2nc(CCl)no2)cc1`, the figure is 48 to 50 °C; as for `COc1cc(C(=O)O)ccc1F`, 207 °C. As for `CCOc1cc(OP(=S)(OC)OC)nc(CC)n1`, the figure is -3.35 °C.

For the molecule `CCC(C)C(CC)C(N)=O` (centres undefined), the melting point came out at 114 °C. As for `Nc1c(Br)cc(Br)c2c1C(=O)c1ccccc1C2=O`, the figure is 227 °C; as for `Cc1ccc(O)c(C(=O)C(F)(F)F)c1`, 41 °C; as for `O=Cc1ccc(OP(=S)(Oc2ccc(C=O)cc2)Oc2ccc(C=O)cc2)cc1`, 115 to 119 °C. For `CCOC(=O)C(C#N)=Cc1ccccc1Cl`, the melting point was 88 °C. For the molecule `Cc1cc(O)c(C(=O)CC(=O)c2ccccc2)cc1Cl`, the melting point fell in the range of 120 to 123 °C.

Consider `c1ccc2sc(Cc3nc4ccccc4s3)nc2c1`, for which the melting point lay in the range of 92 to 96 °C.
